Several values for one entry are separate records, joined by “and”; a condition that tells them apart may be missing. Equal entries are not always repeated.
The compounds below were run against T1, mAC5 (Homo sapiens, UniProt O95622) (assay: AC assay, Gsα-stimulated mAC5 in membranes from transfected HEK293 cells). Conditions: 20µM fatty acid concentration.
T1 construct: Human mAC genes were from GenScript and fitted with a C-terminal FLAG-tag; FLAG (C); made in house; host or cells: HEK293, permanently transfected; membrane preparation
Type: biochemical
Method: (§1) hAC sequences were from NCBI were: ADCY1: NM_021116.3; ADCY2: NM_020546.2; ADCY3: NM_004036.4; ADCY4: NM_001198568.2; ADCY5: NM_183357.2; ADCY6: NM_015270.4; ADCY7: NM_001114.4; ADCY8: NM_001115.2; ADCY9: NM_001116.3. Human mAC genes were from GenScript and fitted with a C-terminal FLAG-tag. […] The gene was synthesized by GenScript. HEK293 cells were maintained in Dulbeccos Modified Eagle Medium (DMEM) with 10% fetal bovine serum at 37°C and 5% CO2. Transfection with AC plasmids was with PolyJet (SignaGen, Frederick, MD, USA). Permanent cell lines were generated by selection for 7 days with 600 µg/ml G418 and maintained with 300 µg/ml For membrane preparation, cells were tyrpsinized, collected by centrifugation (3000 × g, 5 min) and lysed and homogenized in 20 mM HEPES, pH 7.5, 1 mM Ethylenediaminetetraacetic acid (EDTA), 2 mM MgCl2, 1 mM Dithiothreitol (DTT), one tablet of cOmplete, EDTA-free (per 50 ml) and 250 mM sucrose by 20 strokes in a potter homogenizer on ice. Debris was removed (5 min at 1000 × g, 0°C), membranes were collected at 100,000 × g, 60 min at 0°C, suspended and stored at −80°C in 20 mM MOPS, pH 7.5, 0.5 mM EDTA, 2 mM MgCl2. […] Three cerebral cortices were dissected and homogenized in 4.5 ml cold 48 mM Tris–HCl, pH 7.4, 12 mM MgC1_2, and 0.1 mM Ethylene glycol-bis(β-aminoethyl ether)-N,N,N′,N′-tetraacetic acid (EGTA) with a Polytron hand disperser (Kinematica AG, Switzerland). […] The pellet was washed once with 5 ml 1 mM KHCO3. The final suspension in 2 ml 1 mM KHCO3 was stored in aliquots at −80°C.
(§2) In a volume of 10 μl, AC activities were measured using 1 mM ATP, 2 mM MgCl2, 3 mM creatine phosphate, 60 μg/ml creatine kinase, and 50 mM MOPS pH 7.5. The cAMP assay kit from Cisbio (Codolet, France) was used for detection according to the supplier’s instructions. For each assay, a cAMP standard curve was established. EC50 and IC50 values were calculated by GraphPad Prism version 8.4.3 for Windows, GraphPad Software, San Diego, CA, USA, https://www.graphpad.com .

T1 sequence (O95622 whole entry): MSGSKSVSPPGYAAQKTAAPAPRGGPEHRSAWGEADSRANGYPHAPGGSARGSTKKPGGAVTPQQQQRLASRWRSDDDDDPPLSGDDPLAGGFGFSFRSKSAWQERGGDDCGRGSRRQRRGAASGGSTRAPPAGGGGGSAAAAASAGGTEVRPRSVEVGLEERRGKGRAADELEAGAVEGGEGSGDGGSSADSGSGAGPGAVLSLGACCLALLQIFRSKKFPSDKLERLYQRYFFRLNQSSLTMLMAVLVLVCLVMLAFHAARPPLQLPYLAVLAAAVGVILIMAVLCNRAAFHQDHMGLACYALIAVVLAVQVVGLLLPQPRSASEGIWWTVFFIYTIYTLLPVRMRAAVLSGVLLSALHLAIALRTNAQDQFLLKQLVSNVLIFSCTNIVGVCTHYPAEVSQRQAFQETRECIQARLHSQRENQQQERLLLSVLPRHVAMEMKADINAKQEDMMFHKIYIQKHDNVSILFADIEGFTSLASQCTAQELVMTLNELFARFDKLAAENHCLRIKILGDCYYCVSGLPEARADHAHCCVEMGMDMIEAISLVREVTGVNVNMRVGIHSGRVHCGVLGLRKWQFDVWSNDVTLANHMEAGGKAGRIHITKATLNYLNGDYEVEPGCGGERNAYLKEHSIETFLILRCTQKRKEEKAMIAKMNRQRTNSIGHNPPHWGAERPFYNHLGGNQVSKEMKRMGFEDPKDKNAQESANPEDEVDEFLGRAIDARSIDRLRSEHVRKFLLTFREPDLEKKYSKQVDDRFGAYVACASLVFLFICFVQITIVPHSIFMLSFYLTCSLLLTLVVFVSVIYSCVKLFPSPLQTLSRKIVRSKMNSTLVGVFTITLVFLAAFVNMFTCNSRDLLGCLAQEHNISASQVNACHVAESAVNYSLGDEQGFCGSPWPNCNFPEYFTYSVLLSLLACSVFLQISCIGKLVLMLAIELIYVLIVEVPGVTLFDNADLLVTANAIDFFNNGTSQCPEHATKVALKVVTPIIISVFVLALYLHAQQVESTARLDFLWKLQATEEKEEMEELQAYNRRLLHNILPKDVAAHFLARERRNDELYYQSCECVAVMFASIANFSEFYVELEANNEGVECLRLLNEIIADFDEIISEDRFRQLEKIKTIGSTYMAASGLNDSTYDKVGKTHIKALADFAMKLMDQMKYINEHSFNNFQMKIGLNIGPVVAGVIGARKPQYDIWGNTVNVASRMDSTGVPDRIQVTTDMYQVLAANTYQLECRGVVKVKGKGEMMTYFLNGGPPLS

| Compound | mAC5 activity [%] (100% = 300nM Gsα stimulation) |
| --- | --- |
| CCCCCCCC/C=C\CCCCCCCC(=O)OC [Me-Oleate, Methyl oleate] | 60% and 91% |
| O=C(O)CCCCCCCCCCCCCCCCCCC(=O)O [Octadecane-(COOH)2, 1,18-Octadecanedicarboxylic acid] | 102% and 118% and 78% |
| Triolein | 95% |

These compounds were tested against T2, mAC7 (Homo sapiens, UniProt P51828) (assay: AC assay, Gsα-stimulated mAC7 in membranes from transfected HEK293 cells). Conditions: Figure 5-figure supplement 2 left, 20 µM.
T2 construct: Human mAC genes were from GenScript and fitted with a C-terminal FLAG-tag; FLAG (C); made in house; host or cells: HEK293, permanently transfected; membrane preparation
Type: biochemical
Method: as §1, §2

T2 sequence (P51828 whole entry): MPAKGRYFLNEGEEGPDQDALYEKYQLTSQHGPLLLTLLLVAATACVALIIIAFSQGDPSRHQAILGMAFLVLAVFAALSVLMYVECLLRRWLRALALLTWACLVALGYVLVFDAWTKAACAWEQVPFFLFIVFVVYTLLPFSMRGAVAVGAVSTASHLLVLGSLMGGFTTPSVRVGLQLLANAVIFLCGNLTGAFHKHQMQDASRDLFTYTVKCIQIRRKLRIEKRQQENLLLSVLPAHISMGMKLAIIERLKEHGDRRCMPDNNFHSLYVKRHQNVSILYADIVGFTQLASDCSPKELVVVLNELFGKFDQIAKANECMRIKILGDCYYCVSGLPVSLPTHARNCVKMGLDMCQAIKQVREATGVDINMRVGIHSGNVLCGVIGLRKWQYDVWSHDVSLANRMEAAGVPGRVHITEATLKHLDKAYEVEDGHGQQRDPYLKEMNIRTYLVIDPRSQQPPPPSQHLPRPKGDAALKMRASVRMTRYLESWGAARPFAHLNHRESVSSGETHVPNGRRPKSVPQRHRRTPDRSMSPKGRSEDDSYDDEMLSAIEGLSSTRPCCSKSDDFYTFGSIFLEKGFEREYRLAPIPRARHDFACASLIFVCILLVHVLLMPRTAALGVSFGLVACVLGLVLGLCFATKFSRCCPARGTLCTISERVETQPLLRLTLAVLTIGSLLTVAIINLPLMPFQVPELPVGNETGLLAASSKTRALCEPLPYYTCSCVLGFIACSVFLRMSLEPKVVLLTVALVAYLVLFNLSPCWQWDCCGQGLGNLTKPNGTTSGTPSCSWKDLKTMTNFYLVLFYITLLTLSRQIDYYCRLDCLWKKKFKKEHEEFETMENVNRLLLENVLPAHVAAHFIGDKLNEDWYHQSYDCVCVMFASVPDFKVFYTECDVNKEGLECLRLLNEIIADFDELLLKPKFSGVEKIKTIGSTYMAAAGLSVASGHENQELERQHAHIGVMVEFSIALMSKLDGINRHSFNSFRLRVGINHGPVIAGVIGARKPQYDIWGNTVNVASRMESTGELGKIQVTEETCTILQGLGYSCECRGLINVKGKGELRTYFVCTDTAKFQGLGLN
T2 sequence (P63092 2-394 Q227L partner): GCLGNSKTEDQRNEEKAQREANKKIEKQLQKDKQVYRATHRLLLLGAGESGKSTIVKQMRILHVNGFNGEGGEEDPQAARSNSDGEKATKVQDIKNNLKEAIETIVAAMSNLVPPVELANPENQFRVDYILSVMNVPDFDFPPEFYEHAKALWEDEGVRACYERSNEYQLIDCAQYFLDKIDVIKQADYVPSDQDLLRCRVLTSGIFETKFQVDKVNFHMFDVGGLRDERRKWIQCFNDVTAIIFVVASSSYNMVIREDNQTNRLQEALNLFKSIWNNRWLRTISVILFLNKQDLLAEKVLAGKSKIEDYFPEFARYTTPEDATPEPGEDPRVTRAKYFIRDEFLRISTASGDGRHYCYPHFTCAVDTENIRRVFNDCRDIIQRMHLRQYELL

| Compound | mAC7 activity [%] (100% = 300nM Gsα stimulation); 20µM fatty acid concentration |
| --- | --- |
| CCCCCCCC/C=C\CCCCCCCC(=O)OC [Me-Oleate, Methyl oleate] | 115% and 85% |
| O=C(O)CCCCCCCCCCCCCCCCCCC(=O)O [Octadecane-(COOH)2, 1,18-Octadecanedicarboxylic acid] | 81% and 97% |
| Triolein | 83% |

Same assay, conditions: enhancement of 300 nM Gsα-stimulated activity

| Compound | EC50 |
| --- | --- |
| CCCCCCCC/C=C/CCCCCCCC(=O)O [Elaidic acid, Elaidic ((9E)-octadecenoic) acid] | 9.7 µM |

Same assay, conditions: read-out: mAC7 activity (%);(100% = Gsα stimulation) stimulated by 300nM Gsα, Elaidic acid 0.3 µM

| Compound | activity at 0.3 µM |
| --- | --- |
| CCCCCCCC/C=C/CCCCCCCC(=O)O [Elaidic acid, Elaidic ((9E)-octadecenoic) acid] | 100% |

The compounds below were run against T3, mAC2 (Homo sapiens, UniProt Q08462) (assay: AC assay, Gsα-stimulated mAC2 in membranes from transfected HEK293 cells). Conditions: Figure 5-figure supplement 1 left, 20 µM.
T3 construct: Human mAC genes were from GenScript and fitted with a C-terminal FLAG-tag; FLAG (C); made in house; host or cells: HEK293, permanently transfected; membrane preparation
Type: biochemical
Method: as §1, §2

T3 sequence (Q08462 whole entry): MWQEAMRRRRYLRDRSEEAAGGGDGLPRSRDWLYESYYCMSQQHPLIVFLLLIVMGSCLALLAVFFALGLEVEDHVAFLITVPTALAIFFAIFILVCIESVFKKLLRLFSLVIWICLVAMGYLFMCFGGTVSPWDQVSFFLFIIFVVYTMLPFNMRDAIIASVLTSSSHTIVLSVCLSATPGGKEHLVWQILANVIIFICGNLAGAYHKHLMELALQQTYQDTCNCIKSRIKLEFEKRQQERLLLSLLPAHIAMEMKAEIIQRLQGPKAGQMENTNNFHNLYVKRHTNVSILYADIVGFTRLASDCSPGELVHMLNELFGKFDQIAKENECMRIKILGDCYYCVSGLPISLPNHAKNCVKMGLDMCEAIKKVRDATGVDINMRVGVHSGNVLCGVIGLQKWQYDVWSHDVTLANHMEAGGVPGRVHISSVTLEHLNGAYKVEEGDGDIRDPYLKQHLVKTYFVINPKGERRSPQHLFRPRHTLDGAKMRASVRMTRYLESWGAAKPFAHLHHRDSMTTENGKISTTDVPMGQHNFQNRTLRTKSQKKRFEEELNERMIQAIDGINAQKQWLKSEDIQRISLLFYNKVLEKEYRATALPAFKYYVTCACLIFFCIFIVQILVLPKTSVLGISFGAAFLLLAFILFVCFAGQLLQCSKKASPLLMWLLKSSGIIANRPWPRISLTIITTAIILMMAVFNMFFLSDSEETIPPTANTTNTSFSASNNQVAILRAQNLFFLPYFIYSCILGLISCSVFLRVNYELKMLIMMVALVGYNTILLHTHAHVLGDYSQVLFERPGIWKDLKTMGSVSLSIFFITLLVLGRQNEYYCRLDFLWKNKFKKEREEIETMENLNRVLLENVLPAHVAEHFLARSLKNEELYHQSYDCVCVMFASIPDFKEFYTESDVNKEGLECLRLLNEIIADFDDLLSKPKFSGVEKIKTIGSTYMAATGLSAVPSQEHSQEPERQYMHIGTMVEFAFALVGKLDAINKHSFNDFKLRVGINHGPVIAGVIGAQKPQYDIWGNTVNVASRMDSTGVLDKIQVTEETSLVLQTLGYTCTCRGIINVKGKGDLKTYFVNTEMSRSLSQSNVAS
T3 sequence (P63092 2-394 Q227L partner): as the sequence (P63092 2-394 Q227L partner) above

| Compound | mAC2 activity [%] (100% = 300nM Gsα stimulation); 20µM fatty acid concentration |
| --- | --- |
| CCCCCCCC/C=C/CCCCCCCC(=O)O [Elaidic acid, Elaidic ((9E)-octadecenoic) acid] | 131% |
| CCCCCCCC/C=C\CCCCCCCC(=O)OC [Me-Oleate, Methyl oleate] | 121% and 73% |
| O=C(O)CCCCCCCCCCCCCCCCCCC(=O)O [Octadecane-(COOH)2, 1,18-Octadecanedicarboxylic acid] | 101% and 81% and 91% |

These compounds were tested against T4, mAC9 (Homo sapiens, UniProt O60503) (assay: AC assay, Gsα-stimulated mAC9 in membranes from transfected HEK293 cells). Conditions: 3 µM fatty acid; 300 nM Gsα; single experiments.
T4 construct: Human mAC genes were from GenScript and fitted with a C-terminal FLAG-tag; FLAG (C); made in house; host or cells: HEK293, permanently transfected; membrane preparation
Type: biochemical
Method: as §1, §2

| Compound | mAC9 activity (%);(100% = Gsα stimulation) stimulated by 300nM Gsα |
| --- | --- |
| CCCCCCCC/C=C/CCCCCCCC(=O)O [Elaidic acid, Elaidic ((9E)-octadecenoic) acid] | 154% and 261% and 166% and 178% |

Same assay, conditions: 6 µM fatty acid; 300 nM Gsα; single experiments

| Compound | mAC9 activity (%);(100% = Gsα stimulation) stimulated by 300nM Gsα |
| --- | --- |
| CCCCCCCC/C=C/CCCCCCCC(=O)O [Elaidic acid, Elaidic ((9E)-octadecenoic) acid] | 346% and 329% and 316% and 303% and 243% |

Same assay, conditions: 20 µM fatty acid; 300 nM Gsα; single experiments

| Compound | mAC9 activity [%] (100% = 300nM Gsα stimulation); 20µM fatty acid concentration |
| --- | --- |
| CCCCCCCC/C=C\CCCCCCCC(=O)OC [Me-Oleate, Methyl oleate] | 86% and 143% |
| O=C(O)CCCCCCCCCCCCCCCCCCC(=O)O [Octadecane-(COOH)2, 1,18-Octadecanedicarboxylic acid] | 102% and 67% |
| Triolein | 107% |

Same assay, conditions: enhancement of 300 nM Gsα-stimulated activity; read-out: EC50 for mAC9

| Compound | EC50 |
| --- | --- |
| CCCCCCCC/C=C/CCCCCCCC(=O)O [Elaidic acid, Elaidic ((9E)-octadecenoic) acid] | 5 µM |

What follows are compounds tested against T5, mAC3 (Homo sapiens, UniProt O60266) (assay: AC assay, Gsα-stimulated mAC3 in membranes from transfected HEK293 cells). Conditions: 20 µM; in words.
T5 construct: Human mAC genes were from GenScript and fitted with a C-terminal FLAG-tag; FLAG (C); made in house; host or cells: HEK293, permanently transfected; membrane preparation
Type: biochemical
Method: as §1, §2

| Compound | Effect of lipid on 300 nM Gsα-stimulated mAC3 |
| --- | --- |
| CCCCCCCC/C=C/CCCCCCCC(=O)O [Elaidic acid, Elaidic ((9E)-octadecenoic) acid] | efficient enhancers |

Same assay, conditions: fatty acid 20 µM; individual experiments

| Compound | mAC3 activity [%] (100% = 300nM Gsα stimulation) |
| --- | --- |
| CCCCCCCC/C=C/CCCCCCCC(=O)O [Elaidic acid, Elaidic ((9E)-octadecenoic) acid] | 437% and 276% and 279% and 778% and 673% |
| CCCCCCCC/C=C\CCCCCCCC(=O)OC [Me-Oleate, Methyl oleate] | 141% and 90% |
| O=C(O)CCCCCCCCCCCCCCCCCCC(=O)O [Octadecane-(COOH)2, 1,18-Octadecanedicarboxylic acid] | 104% and 106% and 66% |
| Triolein | 96% |

What follows are compounds tested against T6, mAC4 (Homo sapiens, UniProt Q8NFM4) (assay: AC assay, Gsα-stimulated mAC4 in membranes from transfected HEK293 cells). Conditions: 20 µM fatty acid; 300 nM Gsα; single experiments.
T6 construct: Human mAC genes were from GenScript and fitted with a C-terminal FLAG-tag; FLAG (C); made in house; host or cells: HEK293, permanently transfected; membrane preparation
T6 sequence (Q8NFM4 1-1077): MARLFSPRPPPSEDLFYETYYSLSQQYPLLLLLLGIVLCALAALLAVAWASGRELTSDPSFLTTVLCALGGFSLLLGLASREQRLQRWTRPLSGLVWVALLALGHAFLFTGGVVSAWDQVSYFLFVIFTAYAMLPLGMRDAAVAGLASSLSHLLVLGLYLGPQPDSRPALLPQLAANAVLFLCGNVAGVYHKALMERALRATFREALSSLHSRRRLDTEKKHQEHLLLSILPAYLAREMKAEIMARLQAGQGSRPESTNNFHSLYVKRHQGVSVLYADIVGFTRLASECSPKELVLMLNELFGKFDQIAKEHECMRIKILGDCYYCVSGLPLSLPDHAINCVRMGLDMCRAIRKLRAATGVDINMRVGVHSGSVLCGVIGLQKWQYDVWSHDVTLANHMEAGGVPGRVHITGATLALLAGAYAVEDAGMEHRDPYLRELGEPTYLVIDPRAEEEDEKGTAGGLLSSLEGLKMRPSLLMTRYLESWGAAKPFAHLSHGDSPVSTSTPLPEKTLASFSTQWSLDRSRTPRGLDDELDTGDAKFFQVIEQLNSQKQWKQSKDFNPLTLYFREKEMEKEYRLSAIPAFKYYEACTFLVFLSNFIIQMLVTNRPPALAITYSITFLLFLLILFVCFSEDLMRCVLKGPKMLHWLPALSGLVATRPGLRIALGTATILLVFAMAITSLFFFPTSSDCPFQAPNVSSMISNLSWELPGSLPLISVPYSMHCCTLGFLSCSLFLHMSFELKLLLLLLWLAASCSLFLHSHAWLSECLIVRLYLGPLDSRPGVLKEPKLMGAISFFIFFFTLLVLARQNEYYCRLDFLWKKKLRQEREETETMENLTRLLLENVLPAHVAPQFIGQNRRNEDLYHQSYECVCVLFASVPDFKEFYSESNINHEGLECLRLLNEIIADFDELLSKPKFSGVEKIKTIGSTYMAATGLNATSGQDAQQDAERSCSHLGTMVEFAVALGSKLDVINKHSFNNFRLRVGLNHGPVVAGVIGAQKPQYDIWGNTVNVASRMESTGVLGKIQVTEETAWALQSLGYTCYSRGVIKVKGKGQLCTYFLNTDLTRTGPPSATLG
Type: biochemical
Method: as §1, §2

| Compound | mAC4 activity [%] (100% = 300nM Gsα stimulation); 20µM fatty acid concentration |
| --- | --- |
| CCCCCCCC/C=C/CCCCCCCC(=O)O [Elaidic acid, Elaidic ((9E)-octadecenoic) acid] | 130% and 156% and 151% |
| CCCCCCCC/C=C\CCCCCCCC(=O)OC [Me-Oleate, Methyl oleate] | 77% and 99% |
| O=C(O)CCCCCCCCCCCCCCCCCCC(=O)O [Octadecane-(COOH)2, 1,18-Octadecanedicarboxylic acid] | 91% and 73% |

These compounds were tested against T7, mAC1 (Homo sapiens, UniProt Q08828) (assay: AC assay, Gsα-stimulated mAC1 in membranes from transfected HEK293 cells). Conditions: 20 µM fatty acid; 300 nM Gsα; single experiments.
T7 construct: Human mAC genes were from GenScript and fitted with a C-terminal FLAG-tag; FLAG (C); made in house; host or cells: HEK293, permanently transfected; membrane preparation
Type: biochemical
Method: as §1, §2

T7 sequence (Q08828 whole entry): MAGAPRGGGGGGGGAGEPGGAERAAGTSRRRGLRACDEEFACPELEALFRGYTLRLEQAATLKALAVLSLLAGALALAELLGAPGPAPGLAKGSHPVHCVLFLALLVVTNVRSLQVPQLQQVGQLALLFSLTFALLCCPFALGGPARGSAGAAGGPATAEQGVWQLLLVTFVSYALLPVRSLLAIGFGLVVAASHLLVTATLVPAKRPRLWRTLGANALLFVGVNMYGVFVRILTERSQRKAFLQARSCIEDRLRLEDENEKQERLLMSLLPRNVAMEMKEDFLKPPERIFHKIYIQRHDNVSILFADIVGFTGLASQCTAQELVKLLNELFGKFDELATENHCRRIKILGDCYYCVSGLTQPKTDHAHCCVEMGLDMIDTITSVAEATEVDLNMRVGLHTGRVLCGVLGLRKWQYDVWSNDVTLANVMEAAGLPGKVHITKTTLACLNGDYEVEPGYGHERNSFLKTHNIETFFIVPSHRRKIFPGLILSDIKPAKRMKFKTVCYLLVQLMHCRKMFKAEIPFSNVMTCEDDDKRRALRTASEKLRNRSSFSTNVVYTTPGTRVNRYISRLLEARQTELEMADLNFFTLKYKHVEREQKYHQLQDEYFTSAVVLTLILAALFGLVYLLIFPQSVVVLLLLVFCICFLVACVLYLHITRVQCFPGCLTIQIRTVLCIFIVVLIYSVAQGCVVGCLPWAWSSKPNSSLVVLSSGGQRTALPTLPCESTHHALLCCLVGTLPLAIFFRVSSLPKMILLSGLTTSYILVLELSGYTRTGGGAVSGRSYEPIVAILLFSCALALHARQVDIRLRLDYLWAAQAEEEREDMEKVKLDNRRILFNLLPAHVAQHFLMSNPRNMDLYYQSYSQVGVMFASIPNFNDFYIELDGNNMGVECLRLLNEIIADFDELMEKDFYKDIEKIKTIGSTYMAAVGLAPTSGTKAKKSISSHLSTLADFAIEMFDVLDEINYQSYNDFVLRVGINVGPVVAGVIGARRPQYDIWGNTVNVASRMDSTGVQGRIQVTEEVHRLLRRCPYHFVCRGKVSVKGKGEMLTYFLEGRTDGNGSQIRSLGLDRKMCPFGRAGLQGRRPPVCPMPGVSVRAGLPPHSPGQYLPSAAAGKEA

| Compound | mAC1 activity [%] (100% = 300nM Gsα stimulation); 20µM fatty acid concentration |
| --- | --- |
| CCCCCCCC/C=C/CCCCCCCC(=O)O [Elaidic acid, Elaidic ((9E)-octadecenoic) acid] | 72% and 100% |
| CCCCCCCC/C=C\CCCCCCCC(=O)OC [Me-Oleate, Methyl oleate] | 99% and 63% |
| O=C(O)CCCCCCCCCCCCCCCCCCC(=O)O [Octadecane-(COOH)2, 1,18-Octadecanedicarboxylic acid] | 88% and 87% and 108% |

These compounds were tested against T8, mAC6 (Homo sapiens, UniProt O43306) (assay: AC assay, Gsα-stimulated mAC6 in membranes from transfected HEK293 cells). Conditions: 20µM fatty acid concentration.
T8 construct: Human mAC genes were from GenScript and fitted with a C-terminal FLAG-tag; FLAG (C); made in house; host or cells: HEK293, permanently transfected; membrane preparation
Type: biochemical
Method: as §1, §2

| Compound | mAC6 activity [%] (100% = 300nM Gsα stimulation) |
| --- | --- |
| CCCCCCCC/C=C/CCCCCCCC(=O)O [Elaidic acid, Elaidic ((9E)-octadecenoic) acid] | 101% and 97% |
| CCCCCCCC/C=C\CCCCCCCC(=O)OC [Me-Oleate, Methyl oleate] | 78% and 90% |
| O=C(O)CCCCCCCCCCCCCCCCCCC(=O)O [Octadecane-(COOH)2, 1,18-Octadecanedicarboxylic acid] | 83% and 136% and 76% |

From paper PMC11606603, “The membrane domains of mammalian adenylyl cyclases are lipid receptors” (eLife, 2024)
